Data reported in US11077090B2, “Compounds and compositions and uses thereof” (Sunovion Pharmaceuticals Inc., priority 2016, dated 2021).

Tested on: compound-treated mice
Test: Neuropharmacological assay (SmartCube): behavioral activity signature and minimal effective dose
Assay type: in vivo
Settings: for minimal effective dose: Mus musculus, ip, MED = dose having 50% or more total activity, read-out: Potency: minimal effective dose (MED); for AD: ADHD (probability of activity signature) / AG: analgesic (probability of activity signature) / AX: anxiolytic (probability of activity signature) / CE: cognitive enhancer (probability of activity signature) / DP: anti-depressant (probability of activity signature) / MS: mood stabilizer (probability of activity signature) / PS: anti-psychotic (probability of activity signature) / SD: sedative hypnotic (probability of activity signature) / UN: uncharacterized CNS activity (probability of activity signature): i.p. 15 min before test, most efficacious dose(s)
Procedure, shortened: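 Mice dosed i.p. 15 min before test, compound in N-methyl-2-pyrrolidone/PEG/propylene glycol, 3 doses; video-captured behavior matched to reference-drug signatures, giving per-class probabilities at most efficacious dose. MED from doses typically 0.3–30 mpk, defined as lowest dose with ≥50% total activity.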

Row | SMILES | minimal effective dose | AD: ADHD (probability of activity signature) | AG: analgesic (probability of activity signature) | AX: anxiolytic (probability of activity signature) | CE: cognitive enhancer (probability of activity signature) | DP: anti-depressant (probability of activity signature) | MS: mood stabilizer (probability of activity signature) | PS: anti-psychotic (probability of activity signature) | SD: sedative hypnotic (probability of activity signature) | UN: uncharacterized CNS activity (probability of activity signature)
1 | C[C@H]1OCc2ccc(Cl)c(Cl)c2[C@@H]1N.Cl [Example 92] | 10 to 30 mg/kg | + (LOQ ≤ + <5%) | + (LOQ ≤ + <5%) | ++ (5% ≤ ++ <25%) | + (LOQ ≤ + <5%) | ++ (5% ≤ ++ <25%) | + (LOQ ≤ + <5%) | + (LOQ ≤ + <5%) | + (LOQ ≤ + <5%) | ++++ (50% ≤ ++++)
2 | C[C@@H]1OCc2cc(Cl)ccc2[C@@H]1N.Cl [Example 93] | 10 to 30 mg/kg | + (LOQ ≤ + <5%) | ++ (5% ≤ ++ <25%) | +++ (25% ≤ +++ <50%) | + (LOQ ≤ + <5%) | ++ (5% ≤ ++ <25%) | + (LOQ ≤ + <5%) | ++ (5% ≤ ++ <25%) | + (LOQ ≤ + <5%) | + (LOQ ≤ + <5%)
3 | C[C@H]1OCc2cc(Cl)ccc2[C@@H]1N.Cl [Example 94] | 10 to 30 mg/kg | + (LOQ ≤ + <5%) | ++ (5% ≤ ++ <25%) | ++ (5% ≤ ++ <25%) | + (LOQ ≤ + <5%) | + (LOQ ≤ + <5%) | + (LOQ ≤ + <5%) | + (LOQ ≤ + <5%) | + (LOQ ≤ + <5%) | ++ (5% ≤ ++ <25%)
4 | Cc1ccc2c(c1)CO[C@@H](C)[C@H]2N.Cl [Example 95] | < 3 mg/kg | + (LOQ ≤ + <5%) | ++ (5% ≤ ++ <25%) | ++ (5% ≤ ++ <25%) | ++ (5% ≤ ++ <25%) | ++ (5% ≤ ++ <25%) | + (LOQ ≤ + <5%) | +++ (25% ≤ +++ <50%) | + (LOQ ≤ + <5%) | +++ (25% ≤ +++ <50%)
5 | Cc1ccc2c(c1)CO[C@H](C)[C@H]2N.Cl [Example 96] | < 3 mg/kg | + (LOQ ≤ + <5%) | ++ (5% ≤ ++ <25%) | +++ (25% ≤ +++ <50%) | ++ (5% ≤ ++ <25%) | ++ (5% ≤ ++ <25%) | + (LOQ ≤ + <5%) | ++ (5% ≤ ++ <25%) | + (LOQ ≤ + <5%) | +++ (25% ≤ +++ <50%)
6 | Cc1cccc2c1CO[C@@H](C)[C@H]2N.Cl [Example 97] | 3 to 10 mg/kg | + (LOQ ≤ + <5%) | + (LOQ ≤ + <5%) | ++ (5% ≤ ++ <25%) | ++ (5% ≤ ++ <25%) | + (LOQ ≤ + <5%) | + (LOQ ≤ + <5%) | ++ (5% ≤ ++ <25%) | ++ (5% ≤ ++ <25%) | ++++ (50% ≤ ++++)
7 | Cc1cccc2c1CO[C@H](C)[C@H]2N.Cl [Example 98] | 3 to 10 mg/kg | + (LOQ ≤ + <5%) | ++ (5% ≤ ++ <25%) | ++ (5% ≤ ++ <25%) | ++ (5% ≤ ++ <25%) | ++ (5% ≤ ++ <25%) | + (LOQ ≤ + <5%) | ++ (5% ≤ ++ <25%) | ++ (5% ≤ ++ <25%) | ++++ (50% ≤ ++++)
